Literature values in patent publication US20150335679A1, “Methods and Compositions for Treating Malignancies with Dendritic Cells” (Kiromic, LLC, priority 2014, published 2015).
Where two headings read alike, the source gives them in different places.

Legend:
Treg = settings: low-dose
[1] = test system: Tregs; breast tumor-reactive T cells
[2] = 50 mg orally daily for 3 months

O=P1(N(CCCl)CCCl)NCCCO1 (stereo not drawn) [CYP, cyclophosphamide]
rates of disease control (advanced solid tumors; all CYP regimens (oral 50 mg/day, single i.v. 1,000 mg, or both) vs adenovirus only): higher rates of disease control
decrease of Treg numbers (advanced solid tumors; metronomic groups): most effective in decreasing Treg numbers
Treg number and functionality (Treg): decreases
Treg suppressor function (Tregs; 250 mg/m^2): impaired suppressor function
duration of decreased Treg frequency (Tregs; 250 mg/m^2): decreased Treg frequency up to day 71
Alpha-fetoprotein-specific T-cell responses (Tregs; lower treatment arms): induced
absolute and relative frequency of Tregs in the blood of patients (Tregs; the two lower doses (150, 250 mg/m^2)): induced a decrease
course of Tregs [1, 2]: remained decreased until day 42, returning to pretreatment levels by day 84
time to reduction of Tregs [1, 2]: ≤ 14 days
patients with endogenous breast tumor-reactive T cells ([1]; day 14, 27% before CYP treatment): 73%
patients with endogenous breast tumor-reactive T cells ([1]; day 42): 80%
patients with endogenous breast tumor-reactive T cells ([1]; day 84): 88%
